Experimental data: patent publication US11912703B2, “6-azaindole compounds” (BRISTOL-MYERS SQUIBB COMPANY, priority 2017, dated 2024)
Like-named read-outs stand apart in the source and are kept apart here.

Legend:
human TLR7 = human TLR7 (Homo sapiens (Human), UniProt Q9NYK1); test: TLR7 inhibition reporter assay (HEK-Blue SEAP); assay type: cell-based; details: HEK-Blue cells overexpressing human TLR7, gardiquimod 7.5 μM stimulation
human TLR8 = human TLR8 (Homo sapiens (Human), UniProt Q9NR97); test: TLR8 inhibition reporter assay (HEK-Blue SEAP);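 also: SEAP driven by IFN-β minimal promoter with five NF-κB and AP-1 sites, compounds tested 0.05 nM to 50 µM, 22 h incubation, inhibition relative to agonist plus DMSO wells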
Description: HEK-Blue™-cells (Invivogen) overexpressing human TLR7, TLR8 or TLR9 receptors were used for screening inhibitors of these receptors using an inducible SEAP (secreted embryonic alkaline phosphatase) reporter gene under the control of the IFN-β minimal promoter fused to five NF-κB and AP-1-binding sites. Briefly, cells are seeded into Greiner 384 well plates (15000 cells per well for TLR7, 20,000 for TLR8 and 25,000 for TLR9) and then treated with test compounds in DMSO to yield a final dose response concentration range of 0.05 nM-50 μM. After a 30 minute compound pre-treatment at room temperature, the cells are then stimulated with a TLR7 ligand (gardiquimod at a final concentration of 7.5 μM), TLR8 ligand (R848 at a final concentration of 15.9 μM) or TLR9 ligand (ODN2006 at a final concentration of 5 nM) to activate NF-κB and AP-1 which induce the production of SEAP. After a 22 hour incubation at 37° C., 500 CO2, SEAP levels are determined with the addition of HEK-Blue™ Detection reagent (Invivogen), a cell culture medium that allows for detection of SEAP, according to manufacturer's specifications.

human TLR9 = human TLR9 (Homo sapiens (Human), UniProt Q9NR96); test: TLR9 inhibition reporter assay (HEK-Blue SEAP);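 also: SEAP driven by IFN-β minimal promoter carrying five NF-κB and AP-1 sites, 22 h at 37 °C, compounds 0.05 nM–50 µM, inhibition scaled between agonist-plus-DMSO and reference-inhibitor wells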
[1] = read-out: TLR8 IC50; HEK-Blue cells overexpressing human TLR8, R848 15.9 μM stimulation, SEAP reporter
[2] = read-out: TLR9 IC50; HEK-Blue cells overexpressing human TLR9, ODN2006 5 nM stimulation, SEAP reporter
[3] = read-out: TLR8 IC50; HEK-Blue cells overexpressing human TLR8; R848 15.9 μM stimulation; SEAP reporter
[4] = read-out: TLR9 IC50; HEK-Blue cells overexpressing human TLR9; ODN2006 5 nM stimulation; SEAP reporter

Sequence of human TLR8 (Q9NR97 27-1041): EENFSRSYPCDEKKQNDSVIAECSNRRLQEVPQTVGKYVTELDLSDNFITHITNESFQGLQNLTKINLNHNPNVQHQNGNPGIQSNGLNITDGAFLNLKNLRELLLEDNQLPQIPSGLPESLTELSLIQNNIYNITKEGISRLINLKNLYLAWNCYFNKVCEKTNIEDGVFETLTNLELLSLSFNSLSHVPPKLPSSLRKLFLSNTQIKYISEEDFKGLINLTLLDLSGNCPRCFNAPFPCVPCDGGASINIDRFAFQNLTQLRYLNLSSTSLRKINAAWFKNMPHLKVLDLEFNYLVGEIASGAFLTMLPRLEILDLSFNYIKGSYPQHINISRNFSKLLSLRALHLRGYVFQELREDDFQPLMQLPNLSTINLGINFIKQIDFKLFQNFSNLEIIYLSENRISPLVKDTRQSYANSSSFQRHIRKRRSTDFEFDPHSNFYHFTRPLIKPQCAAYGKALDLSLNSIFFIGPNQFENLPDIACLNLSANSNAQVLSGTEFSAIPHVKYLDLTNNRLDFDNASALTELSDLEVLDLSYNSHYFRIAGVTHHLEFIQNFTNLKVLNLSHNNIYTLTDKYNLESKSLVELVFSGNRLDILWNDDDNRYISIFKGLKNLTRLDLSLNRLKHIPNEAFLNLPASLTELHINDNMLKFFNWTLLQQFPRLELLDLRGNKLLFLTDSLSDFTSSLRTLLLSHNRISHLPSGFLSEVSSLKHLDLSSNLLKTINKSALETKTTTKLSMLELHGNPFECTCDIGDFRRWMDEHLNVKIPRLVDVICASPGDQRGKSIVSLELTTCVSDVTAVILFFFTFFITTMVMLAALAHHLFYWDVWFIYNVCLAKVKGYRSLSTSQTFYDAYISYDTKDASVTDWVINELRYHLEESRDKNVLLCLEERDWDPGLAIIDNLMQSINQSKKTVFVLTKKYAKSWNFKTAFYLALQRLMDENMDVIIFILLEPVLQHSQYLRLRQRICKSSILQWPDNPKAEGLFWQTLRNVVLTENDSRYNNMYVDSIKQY
Sequence of human TLR7 (Q9NYK1 27-1049): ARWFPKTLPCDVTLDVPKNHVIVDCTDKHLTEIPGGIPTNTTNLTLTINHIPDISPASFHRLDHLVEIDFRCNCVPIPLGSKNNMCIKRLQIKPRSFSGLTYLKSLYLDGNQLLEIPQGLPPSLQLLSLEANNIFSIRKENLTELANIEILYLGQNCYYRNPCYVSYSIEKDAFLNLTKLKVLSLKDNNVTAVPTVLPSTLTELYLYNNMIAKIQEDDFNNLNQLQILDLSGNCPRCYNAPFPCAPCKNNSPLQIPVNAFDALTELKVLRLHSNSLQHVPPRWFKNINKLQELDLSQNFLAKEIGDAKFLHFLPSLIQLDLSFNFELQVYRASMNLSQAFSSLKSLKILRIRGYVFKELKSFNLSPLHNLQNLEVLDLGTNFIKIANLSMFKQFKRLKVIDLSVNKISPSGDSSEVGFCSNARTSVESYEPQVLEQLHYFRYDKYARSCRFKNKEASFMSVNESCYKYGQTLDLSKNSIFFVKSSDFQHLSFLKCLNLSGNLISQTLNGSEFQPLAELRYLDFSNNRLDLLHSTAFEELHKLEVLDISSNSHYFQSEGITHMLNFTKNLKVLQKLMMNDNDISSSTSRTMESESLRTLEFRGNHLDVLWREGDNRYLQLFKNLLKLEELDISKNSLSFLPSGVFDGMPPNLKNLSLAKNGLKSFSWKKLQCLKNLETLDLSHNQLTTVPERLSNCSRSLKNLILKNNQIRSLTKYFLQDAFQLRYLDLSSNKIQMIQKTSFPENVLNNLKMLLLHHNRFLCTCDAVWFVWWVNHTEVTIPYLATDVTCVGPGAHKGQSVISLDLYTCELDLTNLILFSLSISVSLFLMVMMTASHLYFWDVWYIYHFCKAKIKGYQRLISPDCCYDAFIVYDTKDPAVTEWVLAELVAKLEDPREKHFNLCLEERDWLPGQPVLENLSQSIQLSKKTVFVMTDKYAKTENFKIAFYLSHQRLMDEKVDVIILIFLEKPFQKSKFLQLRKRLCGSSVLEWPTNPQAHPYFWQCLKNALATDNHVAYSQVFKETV
Sequence of human TLR9 (Q9NR96 26-1032): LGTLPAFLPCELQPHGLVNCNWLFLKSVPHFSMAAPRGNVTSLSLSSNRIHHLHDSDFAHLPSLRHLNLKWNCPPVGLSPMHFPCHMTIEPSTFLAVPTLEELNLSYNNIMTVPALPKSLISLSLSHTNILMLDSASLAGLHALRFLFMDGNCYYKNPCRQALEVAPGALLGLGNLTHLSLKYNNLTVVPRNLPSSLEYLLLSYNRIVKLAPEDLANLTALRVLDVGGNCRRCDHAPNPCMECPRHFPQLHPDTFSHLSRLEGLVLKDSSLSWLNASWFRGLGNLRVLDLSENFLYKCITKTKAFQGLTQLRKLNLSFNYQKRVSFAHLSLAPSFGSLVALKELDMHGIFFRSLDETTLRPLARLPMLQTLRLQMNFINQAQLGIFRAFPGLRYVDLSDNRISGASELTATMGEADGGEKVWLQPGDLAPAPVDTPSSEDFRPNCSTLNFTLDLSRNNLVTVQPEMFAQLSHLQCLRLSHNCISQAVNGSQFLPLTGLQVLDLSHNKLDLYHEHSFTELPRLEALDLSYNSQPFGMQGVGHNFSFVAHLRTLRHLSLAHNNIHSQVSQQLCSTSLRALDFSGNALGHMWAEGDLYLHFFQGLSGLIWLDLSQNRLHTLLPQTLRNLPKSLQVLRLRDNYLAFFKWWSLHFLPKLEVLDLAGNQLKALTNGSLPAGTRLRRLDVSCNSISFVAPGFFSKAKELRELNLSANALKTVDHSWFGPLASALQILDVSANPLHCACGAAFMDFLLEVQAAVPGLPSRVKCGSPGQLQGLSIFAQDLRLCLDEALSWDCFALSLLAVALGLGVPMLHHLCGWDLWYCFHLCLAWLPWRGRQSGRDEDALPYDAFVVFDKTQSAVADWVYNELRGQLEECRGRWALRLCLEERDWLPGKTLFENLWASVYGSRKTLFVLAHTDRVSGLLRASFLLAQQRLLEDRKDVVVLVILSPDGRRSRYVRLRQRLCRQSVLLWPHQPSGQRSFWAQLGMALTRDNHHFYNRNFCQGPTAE

| Compound | IC50 (human TLR7) [nM] | IC50 (human TLR8; [1]) [nM] | IC50 (human TLR9; [2]) [nM] | IC50 (human TLR8; [3]) [nM] | IC50 (human TLR9; [4]) [nM] |
| --- | --- | --- | --- | --- | --- |
| Cc1c(-c2[nH]c3cnc(N4CCN(C(=O)CN(C)C)CC4)c(C)c3c2C(C)C)cn2ncnc2c1C [Example 416, 1-(4-(2-(7,8-dimethyl-[1,2,4]triazolo[1,5-a]pyridin-6-yl)-3-isopropyl-4-methyl-1H-pyrrolo[2,3-c]pyridin-5-yl)piperazin-1-yl)-2-(dimethylamino)ethan-1-one] | 10 | 1.7 | 1730 |  |  |
| Cc1c(-c2[nH]c3cnc(N4CCN(CC5CCOCC5)CC4)c(C)c3c2C(C)C)cn2ncnc2c1C [Example 419] | 32 | 1.4 | 5900 |  |  |
| Cc1cc(-c2[nH]c3cnc(C4CCN(C(=O)CN(C)C)CC4)c(F)c3c2C(C)C)cn2ncnc12 [Example 65] | 2.2 | 5.6 | 3320 |  |  |
| Cc1cc(-c2[nH]c3cnc(C4CCC(NC5COC5)CC4)c(F)c3c2C(C)C)cn2ncnc12 (stereo not drawn) [Example 107] | 3.6 | 4.5 | 2060 |  |  |
| COc1cc(-c2[nH]c3cnc(C4CCC(NCC5(C)COC5)CC4)c(F)c3c2C(C)C)cn2ncnc12 (stereo not drawn) [Example 225] | 4 |  |  | 1.4 | 4700 |
| COc1cc(-c2[nH]c3cnc(C4CCC(NC5CCOC5)CC4)cc3c2C(C)C)cn2ncnc12 (stereo not drawn) [Example 342] | 3.8 | 8.3 | 224 |  |  |
| Cc1c(-c2[nH]c3cnc(N4CCC(N5CCC5)CC4)c(F)c3c2C(C)C)cn2ncnc2c1C [Example 51] | 0.74 | 0.58 | 2770 |  |  |
| Cc1cc(-c2[nH]c3cnc(N4CCC(N(C)CC(C)(C)C)CC4)c(F)c3c2C(C)C)cn2ncnc12 [Example 196] | 3 | 1.1 | 2080 |  |  |
| CCN(C)C1CCC(c2cc3c(C(C)C)c(-c4cc(OC)c5ncnn5c4)[nH]c3cn2)C1 (stereo not drawn) [Example 249] | 12 | 12 | 1450 |  |  |
| Cc1cc(-c2[nH]c3cnc(C4CCC(NC(C)C)CC4)c(F)c3c2C(C)C)cn2ncnc12 (stereo not drawn) [Example 198] | 2.4 | 2.6 | 1150 |  |  |
| CCN(C)C1CCC(c2cc3c(C(C)C)c(-c4cc(OC)c5ncnn5c4)[nH]c3cn2)CC1 (stereo not drawn) [Example 331] | 263 | 637 | 3300 |  |  |
| COc1cc(-c2[nH]c3cnc(C4CCC(N5CC6(COC6)C5)C4)cc3c2C(C)C)cn2ncnc12 (stereo not drawn) [Example 209] | 29 | 97 | 1080 |  |  |
| Cc1cc(-c2[nH]c3cnc(C4CCNCC4)c(F)c3c2C(C)C)cc(C)n1 [Example 151] | 1.1 | 4.4 | 768 |  |  |
| COc1cc(-c2[nH]c3cnc(C4CCC(NCC5(C)COC5)C4)cc3c2C(C)C)cn2ncnc12 (stereo not drawn) [Example 276] | 7.7 | 1.2 | 114 |  |  |

Continued, values first:

| IC50 (human TLR7) [nM] | IC50 (human TLR8; [1]) [nM] | IC50 (human TLR9; [2]) [nM] | IC50 (human TLR8; [3]) [nM] | IC50 (human TLR9; [4]) [nM] | Compound |
| --- | --- | --- | --- | --- | --- |
| 3.1 | 4.7 | 29100 |  |  | CNC(=O)CN1CCN(c2ncc3[nH]c(-c4cc(OC)c5ncnn5c4)c(C(C)C)c3c2Cl)CC1 [Example 293] |
| 0.49 | 0.41 | 3980 |  |  | COCCNC1CCN(c2ncc3[nH]c(-c4cc(OC)c5ncnn5c4)c(C(C)C)c3c2F)CC1 [Example 99] |
| 9.3 | 2.3 | > 50000 |  |  | Cc1c(-c2[nH]c3cnc(N4CCN(CC(N)=O)CC4)c(F)c3c2C(C)C)cn2ncnc2c1C [Example 429] |
| 3.2 |  |  | 2.7 | 5770 | COc1cc(-c2[nH]c3cnc(N4CCC(N(C)CC(N)=O)CC4)c(F)c3c2C(C)C)cn2ncnc12 [Example 222] |
| 7.1 | 4.3 | 11200 |  |  | COc1cc(-c2[nH]c3cnc(N4CCN(C(=O)CN(C)C)C[C@H]4C)c(F)c3c2C(C)C)cn2ncnc12 [Example 439] |
| 2.5 | 2 | 1510 |  |  | COc1cc(-c2[nH]c3cnc(C4CCN(CC(=O)N(C)C)CC4)c(F)c3c2C(C)C)cn2ncnc12 [Example 34] |
